Measurements: patent US12479840B2, “HMG-CoA reductase degradation inducing compound” (Uppthera, priority 2020, dated 2025)

target: T1, HMG-CoA reductase (Homo sapiens, UniProt P04035); assay: HMG-CoA reductase (HMGCR) degradation in HepG2 cells by western blotting; type: cell-based; details: treated for 18 hours, ratio of HMG-CoA reductase to GAPDH
T1 construct: endogenous in cells; host or cells: HepG2 (Korea Cell Line Bank)
T1 sequence (P04035 1-888): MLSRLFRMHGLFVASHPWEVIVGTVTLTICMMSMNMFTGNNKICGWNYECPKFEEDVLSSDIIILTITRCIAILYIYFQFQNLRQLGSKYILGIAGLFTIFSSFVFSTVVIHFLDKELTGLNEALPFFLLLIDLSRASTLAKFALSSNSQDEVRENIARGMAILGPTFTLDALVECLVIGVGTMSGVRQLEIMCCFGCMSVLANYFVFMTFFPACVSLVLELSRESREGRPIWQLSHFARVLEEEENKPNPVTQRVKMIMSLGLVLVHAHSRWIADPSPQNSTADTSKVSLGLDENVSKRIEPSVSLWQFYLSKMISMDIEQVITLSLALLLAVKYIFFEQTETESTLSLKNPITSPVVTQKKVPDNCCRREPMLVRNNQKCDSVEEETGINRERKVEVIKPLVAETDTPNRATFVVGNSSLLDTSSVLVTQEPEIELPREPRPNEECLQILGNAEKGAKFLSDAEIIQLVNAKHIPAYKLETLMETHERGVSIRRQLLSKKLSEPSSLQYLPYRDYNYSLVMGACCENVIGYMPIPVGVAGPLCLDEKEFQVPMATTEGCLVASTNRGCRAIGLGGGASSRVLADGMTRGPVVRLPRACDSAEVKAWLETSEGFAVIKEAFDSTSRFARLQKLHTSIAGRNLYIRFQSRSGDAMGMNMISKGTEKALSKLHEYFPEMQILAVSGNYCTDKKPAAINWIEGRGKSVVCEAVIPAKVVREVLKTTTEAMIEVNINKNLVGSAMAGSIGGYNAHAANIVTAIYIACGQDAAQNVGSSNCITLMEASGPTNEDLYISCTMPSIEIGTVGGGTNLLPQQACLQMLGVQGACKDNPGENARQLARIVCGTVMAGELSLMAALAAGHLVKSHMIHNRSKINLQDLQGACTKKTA
Summary of the method: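 Western blot read-out: HMGCR protein probed (1:500, 16 hours at 4° C) alongside GAPDH loading control on 15 μg BCA-normalised RIPA lysates. Lysates came from HepG2 cells (P105–P110) exposed for 18 hours to a 10-point, three-fold series starting at 3 μM.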

SMILES	DC50
Cc1ncsc1-c1ccc(CNC(=O)[C@@H]2C[C@@H](O)CN2C(=O)[C@@H](NC(=O)C2(F)CC2)C(C)(C)C)c(OCCOCCOCCOCCNC(=O)O[C@H]2C[C@@H](C)C=C3C=C[C@H](C)[C@H](CC[C@@H]4C[C@@H](O[Si](C)(C)C(C)(C)C)CC(=O)O4)[C@H]32)c1 [Compound 29, (1S,3R,7S,8S,8aR)-8-(2-((2R,4R)-4-((tert-butyldimethylsilyl)oxy)-6-oxotetrahydro-2H-pyran-2-yl)ethyl)-3,7-dimethyl-1,2,3,7,8,8a-hexahydronaphthalen-1-yl (2-(2-(2-(2-(2-(((2S,4R)-1-((S)-2-(1-fluorocyclopropane-1-carboxamido)-3,3-dimethylbutanoyl)-4-hydroxypyrrolidine-2-carboxamido)methyl)-5-(4-methylthiazol-5-yl)phenoxy)ethoxy)ethoxy)ethoxy)ethyl)carbamate]	0.05 to 0.5 µM

same assay, conditions: treated for 18 hours, ratio of HMG-CoA reductase to GAPDH, read-out: DC50

SMILES	DC50
C[C@H]1C=C2C=C[C@H](C)[C@H](CC[C@@H]3C[C@@H](O[Si](c4ccccc4)(c4ccccc4)C(C)(C)C)CC(=O)O3)[C@H]2[C@@H](OC(=O)NCCOCCOCCNc2cccc3c2C(=O)N(C2CCC(=O)NC2=O)C3=O)C1 (stereo partly drawn) [Compound 71, (1S,3R,7S,8S,8aR)-8-(2-((2R,4R)-4-((tert-butyldiphenylsilyl)oxy)-6-oxotetrahydro-2H-pyran-2-yl)ethyl)-3,7-dimethyl-1,2,3,7,8,8a-hexahydronaphthalen-1-yl (2-(2-(2-((2-(2,6-dioxopiperidin-3-yl)-1,3-dioxoisoindolin-4-yl)amino)ethoxy)ethoxy)ethyl)carbamate]	< 0.05 µM
Cc1ncsc1-c1ccc(CNC(=O)[C@@H]2C[C@@H](O)CN2C(=O)[C@@H](NC(=O)C2(F)CC2)C(C)(C)C)c(OCCOCCOCCNC(=O)O[C@H]2C[C@@H](C)C=C3C=C[C@H](C)[C@H](CC[C@@H]4C[C@@H](O)CC(=O)O4)[C@H]32)c1 [Compound 24, (1S,3R,7S,8S,8aR)-8-(2-((2R,4R)-4-hydroxy-6-oxotetrahydro-2H-pyran-2-yl)ethyl)-3,7-dimethyl-1,2,3,7,8,8a-hexahydronaphthalen-1-yl (2-(2-(2-(2-(((2S,4R)-1-((S)-2-(1-fluorocyclopropane-1-carboxamido)-3,3-dimethylbutanoyl)-4-hydroxypyrrolidine-2-carboxamido)methyl)-5-(4-methylthiazol-5-yl)phenoxy)ethoxy)ethoxy)ethyl)carbamate]	< 0.05 µM
CN[C@@H](C)C(=O)N[C@H](C(=O)N1CCC[C@H]1c1nc(C(=O)c2cccc(OCCOCCOCCOCCNC(=O)O[C@H]3C[C@@H](C)C=C4C=C[C@H](C)[C@H](CC[C@@H]5C[C@@H](O[Si](C)(C)C(C)(C)C)CC(=O)O5)[C@H]43)c2)cs1)C1CCCCC1 [Compound 37, (1S,3R,7S,8S,8aR)-8-(2-((2R,4R)-4-((tert-butyldimethylsilyl)oxy)-6-oxotetrahydro-2H-pyran-2-yl)ethyl)-3,7-dimethyl-1,2,3,7,8,8a-hexahydronaphthalen-1-yl (2-(2-(2-(2-(3-(2-((S)-1-((S)-2-cyclohexyl-2-((S)-2-(methylamino)propanamido)acetyl)pyrrolidin-2-yl)thiazole-4-carbonyl)phenoxy)ethoxy)ethoxy)ethoxy)ethyl)carbamate]	< 0.05 µM
Cc1ncsc1-c1ccc(CNC(=O)[C@@H]2C[C@@H](O)CN2C(=O)[C@@H](NC(=O)COCCOCCOCCOCCNC(=O)O[C@H]2C[C@@H](C)C=C3C=C[C@H](C)[C@H](CC[C@@H]4C[C@@H](O[Si](C)(C)C(C)(C)C)CC(=O)O4)[C@H]32)C(C)(C)C)cc1 [Compound 21, (1S,3R,7S,8S,8aR)-8-(2-((2R,4R)-4-((tert-butyldimethylsilyl)oxy)-6-oxotetrahydro-2H-pyran-2-yl)ethyl)-3,7-dimethyl-1,2,3,7,8,8a-hexahydronaphthalen-1-yl ((S)-16-((2S,4R)-4-hydroxy-2-((4-(4-methylthiazol-5-yl)benzyl)carbamoyl)pyrrolidine-1-carbonyl)-17,17-dimethyl-14-oxo-3,6,9,12-tetraoxa-15-azaoctadecyl)carbamate]	< 0.05 µM
C[C@H]1C=C2C=C[C@H](C)[C@H](CC[C@@H]3C[C@@H](O)CC(=O)O3)[C@H]2[C@@H](OC(=O)C(C)(C)CCC(=O)NCCOCCOCCOCCNc2cccc3c2C(=O)N(C2CCC(=O)NC2=O)C3=O)C1 (stereo partly drawn) [Compound 3, (1S,3R,7S,8S,8aR)-8-(2-((2R,4R)-4-hydroxy-6-oxotetrahydro-2H-pyran-2-yl)ethyl)-3,7-dimethyl-1,2,3,7,8,8a-hexahydronaphthalen-1-yl 1-((2-(2,6-dioxopiperidin-3-yl)-1,3-dioxoisoindolin-4-yl)amino)-16,16-dimethyl-13-oxo-3,6,9-trioxa-12-azaheptadecan-17-oate]	< 0.05 µM
Cc1ncsc1-c1ccc(CNC(=O)[C@@H]2C[C@@H](O)CN2C(=O)[C@@H](NC(=O)C2(F)CC2)C(C)(C)C)c(OCCOCCOCCOCCOCCNC(=O)O[C@H]2C[C@@H](C)C=C3C=C[C@H](C)[C@H](CC[C@@H]4C[C@@H](O)CC(=O)O4)[C@H]32)c1 [Compound 26, (1S,3R,7S,8S,8aR)-8-(2-((2R,4R)-4-hydroxy-6-oxotetrahydro-2H-pyran-2-yl)ethyl)-3,7-dimethyl-1,2,3,7,8,8a-hexahydronaphthalen-1-yl (14-(2-(((2S,4R)-1-((S)-2-(1-fluorocyclopropane-1-carboxamido)-3,3-dimethylbutanoyl)-4-hydroxypyrrolidine-2-carboxamido)methyl)-5-(4-methylthiazol-5-yl)phenoxy)-3,6,9,12-tetraoxatetradecyl)carbamate]	< 0.05 µM
C[C@H]1C=C2C=C[C@H](C)[C@H](CC[C@@H]3C[C@@H](O)CC(=O)O3)[C@H]2[C@@H](OC(=O)NCCCCCN2CCC(Nc3cccc4c3C(=O)N(C3CCC(=O)NC3=O)C4=O)CC2)C1 (stereo partly drawn) [Compound 126, (1S,3R,7S,8S,8aR)-8-(2-((2R,4R)-4-hydroxy-6-oxotetrahydro-2H-pyran-2-yl)ethyl)-3,7-dimethyl-1,2,3,7,8,8a-hexahydronaphthalen-1-yl (5-(4-((2-(2,6-dioxopiperidin-3-yl)-1,3-dioxoisoindolin-4-yl)amino)piperidin-1-yl)pentyl)carbamate]	< 0.05 µM
C[C@H]1C=C2C=C[C@H](C)[C@H](CC[C@@H]3C[C@@H](O)CC(=O)O3)[C@H]2[C@@H](OC(=O)NCCOCCOCCOCC(=O)Nc2cccc3c2C(=O)N(C2CCC(=O)NC2=O)C3=O)C1 (stereo partly drawn) [Compound 99, (1S,3R,7S,8S,8aR)-8-(2-((2R,4R)-4-hydroxy-6-oxotetrahydro-2H-pyran-2-yl)ethyl)-3,7-dimethyl-1,2,3,7,8,8a-hexahydronaphthalen-1-yl (2-(2-(2-(2-((2-(2,6-dioxopiperidin-3-yl)-1,3-dioxoisoindolin-4-yl)amino)-2-oxoethoxy)ethoxy)ethoxy)ethyl)carbamate]	< 0.05 µM
C[C@H]1C=C2C=C[C@H](C)[C@H](CC[C@@H]3C[C@@H](O[Si](C)(C)C(C)(C)C)CC(=O)O3)[C@H]2[C@@H](OC(=O)NCCCCCCCCNc2cccc3c2C(=O)N(C2CCC(=O)NC2=O)C3=O)C1 (stereo partly drawn) [Compound 54, (1S,3R,7S,8S,8aR)-8-(2-((2R,4R)-4-((tert-butyldimethylsilyl)oxy)-6-oxotetrahydro-2H-pyran-2-yl)ethyl)-3,7-dimethyl-1,2,3,7,8,8a-hexahydronaphthalen-1-yl (8-((2-(2,6-dioxopiperidin-3-yl)-1,3-dioxoisoindolin-4-yl)amino)octyl)carbamate]	< 0.05 µM
C[C@H]1C=C2C=C[C@H](C)[C@H](CC[C@@H]3C[C@@H](O[Si](C)(C)C(C)(C)C)CC(=O)O3)[C@H]2[C@@H](OC(=O)N(C)CCOCCOCCNc2cccc3c2C(=O)N(C2CCC(=O)NC2=O)C3=O)C1 (stereo partly drawn) [Compound 82, (1S,3R,7S,8S,8aR)-8-(2-((2R,4R)-4-((tert-butyldimethylsilyl)oxy)-6-oxotetrahydro-2H-pyran-2-yl)ethyl)-3,7-dimethyl-1,2,3,7,8,8a-hexahydronaphthalen-1-yl (2-(2-(2-((2-(2,6-dioxopiperidin-3-yl)-1,3-dioxoisoindolin-4-yl)amino)ethoxy)ethoxy)ethyl)(methyl)carbamate]	< 0.05 µM
